Results published in ChEMBL document CHEMBL4834462, “Naphtho-γ-pyrone Dimers from an Endozoic Aspergillus niger and the Effects of Coisolated Monomers in Combination with Cisplatin on a Cisplatin-Resistant A549 Cell Line” (J Nat Prod, 2021).
Each block holds one compound with its values, some of them ahead of it. Activity calls are given as the source filed them. No cut-off for these calls is given here.

Legend:
[1] = tested on: A549; test: Anticancer activity against cisplatin-resistant human A549 cells assessed as reduction in cell viability measured after 48 hrs in presence of cisplatin by MTT assay; format: functional, cell-based; conditions: A549, 48 h
[2] = tested on: A549; test: Synergistic antiproliferative activity against cisplatin-resistant human A549 cells assessed as combination index at 10 uM incubated for 48 hrs in presence of 1.5 uM cisplatin by MTT assay; format: functional
[3] = tested on: A549; test: Synergistic antiproliferative activity against cisplatin-resistant human A549 cells assessed as combination index at 10 uM incubated for 48 hrs in presence of 3 uM cisplatin by MTT assay; format: functional
[4] = tested on: A549; test: Synergistic antiproliferative activity against cisplatin-resistant human A549 cells assessed as combination index at 10 uM incubated for 48 hrs in presence of 4.5 uM cisplatin by MTT assay; format: functional
[5] = tested on: A549; test: Synergistic antiproliferative activity against cisplatin-resistant human A549 cells assessed as combination index at 15 uM incubated for 48 hrs in presence of 1.5 uM cisplatin by MTT assay; format: functional
[6] = tested on: A549; test: Synergistic antiproliferative activity against cisplatin-resistant human A549 cells assessed as combination index at 15 uM incubated for 48 hrs in presence of 3 uM cisplatin by MTT assay; format: functional
[7] = tested on: A549; test: Synergistic antiproliferative activity against cisplatin-resistant human A549 cells assessed as combination index at 15 uM incubated for 48 hrs in presence of 4.5 uM cisplatin by MTT assay; format: functional
[8] = tested on: A549; test: Synergistic antiproliferative activity against cisplatin-resistant human A549 cells assessed as combination index at 20 uM incubated for 48 hrs in presence of 1.5 uM cisplatin by MTT assay; format: functional
[9] = tested on: A549; test: Synergistic antiproliferative activity against cisplatin-resistant human A549 cells assessed as combination index at 20 uM incubated for 48 hrs in presence of 3 uM cisplatin by MTT assay; format: functional
[10] = tested on: A549; test: Synergistic antiproliferative activity against cisplatin-resistant human A549 cells assessed as combination index at 20 uM incubated for 48 hrs in presence of 4.5 uM cisplatin by MTT assay; format: functional
[11] = tested on: A549; test: Inhibition of redox balance in cisplatin-resistant human A549 cells assessed as reduction in ratio of GSH/GSSG measured after 24 hrs; format: functional, cell-based; conditions: dose 10-20 µM
[12] = tested on: A549; test: Induction of intracellular ROS generation in cisplatin-resistant human A549 cells measured after 24 hrs by DCFH-DA staining based laser scanning confocal microscopy; format: functional, cell-based; conditions: dose 10-20 µM
[13] = tested on: A549; test: Induction of apoptosis in cisplatin-resistant human A549 cells assessed as viable cells at 10 uM incubated for 24 hrs by AnnexinV-FITC/PI staining based flow cytometry (reference value: 86.5%); format: functional; conditions: read-out: Activity
[14] = tested on: A549; test: Induction of apoptosis in cisplatin-resistant human A549 cells assessed as early apoptotic cells at 10 uM incubated for 24 hrs by AnnexinV-FITC/PI staining based flow cytometry (reference value: 2.17%); format: functional
[15] = tested on: A549; test: Induction of apoptosis in cisplatin-resistant human A549 cells assessed as late apoptotic cells at 10 uM incubated for 24 hrs by AnnexinV-FITC/PI staining based flow cytometry (reference value: 10.8%); format: functional
[16] = tested on: A549; test: Induction of apoptosis in cisplatin-resistant human A549 cells assessed as necrotic cells at 10 uM incubated for 24 hrs by AnnexinV-FITC/PI staining based flow cytometry (reference value: 0.53%); format: functional
[17] = tested on: A549; test: Induction of apoptosis in cisplatin-resistant human A549 cells assessed as viable cells at 20 uM incubated for 24 hrs by AnnexinV-FITC/PI staining based flow cytometry (reference value: 86.5%); format: functional; conditions: read-out: Activity
[18] = tested on: A549; test: Induction of apoptosis in cisplatin-resistant human A549 cells assessed as early apoptotic cells at 20 uM incubated for 24 hrs by AnnexinV-FITC/PI staining based flow cytometry (reference value: 2.17%); format: functional
[19] = tested on: A549; test: Induction of apoptosis in cisplatin-resistant human A549 cells assessed as late apoptotic cells at 20 uM incubated for 24 hrs by AnnexinV-FITC/PI staining based flow cytometry (reference value: 10.8%); format: functional
[20] = tested on: A549; test: Induction of apoptosis in cisplatin-resistant human A549 cells assessed as necrotic cells at 20 uM incubated for 24 hrs by AnnexinV-FITC/PI staining based flow cytometry (reference value: 0.53%); format: functional
[21] = tested on: A549; test: Downregulation of HO-1 protein expression in cisplatin-resistant human A549 cells at 15 uM incubated for 48 hrs in presence of cisplatin by western blot analysis; format: functional, cell-based
[22] = tested on: A549; test: Downregulation of NQO-1 protein expression in cisplatin-resistant human A549 cells at 15 uM incubated for 48 hrs in presence of cisplatin by western blot analysis; format: functional, cell-based
[23] = tested on: A549; test: Downregulation of AKT protein expression in cisplatin-resistant human A549 cells at 15 uM incubated for 48 hrs in presence of cisplatin by western blot analysis; format: functional, cell-based
[24] = tested on: A549; test: Downregulation of Nrf2 protein expression in cisplatin-resistant human A549 cells at 15 uM incubated for 48 hrs in presence of cisplatin by western blot analysis; format: functional, cell-based
[25] = tested on: A549; test: Downregulation of HO-1 protein expression in cisplatin-resistant human A549 cells at 15 uM incubated for 48 hrs by western blot analysis; format: functional, cell-based

IC50 [1]: > 20 µM
Compound: COc1cc(OC)c2c(O)c3c(=O)cc(C)oc3c(-c3c(OC)cc4cc5oc(C)cc(=O)c5c(O)c4c3OC)c2c1 [AURASPERONE A]

IC50 [1]: > 20 µM
Compound: COc1cc(OC)c2c(c1)c(-c1c(OC)cc3cc4oc(C)cc(=O)c4c(O)c3c1OC)c(O)c1c(=O)cc(C)oc12 [ASPERPYRONE C]

IC50 [1]: > 20 µM
Compound: COc1cc(O)cc2cc3oc(C)cc(=O)c3c(O)c12

IC50 [1]: > 20 µM
Compound: COc1cc(OC)c2c(c1)c(-c1c(O)cc3cc4oc(C)cc(=O)c4c(O)c3c1OC)c(O)c1c(=O)cc(C)oc12

IC50 [1]: > 20 µM
Compound: COc1cc(OC)c2c(O)c3c(=O)cc(C)oc3c(-c3c(O)cc4cc5oc(C)cc(=O)c5c(O)c4c3OC)c2c1

IC50 [1]: > 20 µM
Compound: O=C1C=C2O[C@H]3CC(=O)c4c(O)cc(O)cc4C3=C2c2cc(O)cc(O)c21

IC50 [1]: > 20 µM
Compound: COc1cc(OC)c2c(O)c3c(=O)cc(C)oc3c(-c3c(O)cc4cc(O)c5c(=O)cc(C)oc5c4c3OC)c2c1 [ASPERPYRONE A]

Compound: COc1cc(OC)c2c(O)c3c(=O)cc(C)oc3cc2c1 [RUBROFUSARIN B]
IC50 [1]: > 20 µM

IC50 [1]: > 20 µM
Compound: COc1cc(OC)c2c(O)c3c(c(-c4c(OC)cc5cc(O)c6c(=O)cc(C)oc6c5c4OC)c2c1)O[C@](C)(O)CC3=O

IC50 [1]: > 20 µM
Compound: COc1cc(O)cc2cc(O)c3c(=O)cc(C)oc3c12
CI [2]: 1.95
CI [3]: 0.95
CI [4]: 0.83
CI [5]: 0.75
CI [6]: 0.72
CI [7]: 0.79
CI [8]: 0.76
CI [9]: 0.76
CI [10]: 0.81
inhibition [11]: Dose-Dependent Effect
Activity [12]: Dose-Dependent Effect
viability at 10 µM [13]: 72.6%
Activity [14]: 2.87%
Activity [15]: 23.6%
Activity [16]: 0.9%
viability at 20 µM [17]: 53.3%
Activity [18]: 4.05%
Activity [19]: 41.3%
Activity [20]: 1.34%
inhibition [21]: Active
inhibition [22]: Active
inhibition [23]: Active
inhibition [24]: Active
inhibition [25]: Active

IC50 [1]: > 20 µM
Compound: COc1cc(OC)c2c(c1)c(-c1c(OC)cc3cc(O)c4c(=O)cc(C)oc4c3c1OC)c(O)c1c(=O)cc(C)oc12

Compound: COc1cc(OC)c2c(O)c3c(=O)cc(C)oc3c(-c3c(OC)cc4cc(O)c5c(=O)cc(C)oc5c4c3OC)c2c1 [FONSECINONE A]
IC50 [1]: > 20 µM
